What was measured:
[1] = Solubility of L-carnitine in water (100-2000 mg per 16 oz); assay type: physicochemical; conditions: about 100 mg to about 2000 mg per 16 fluid ounces of water
Method: A pre-measured amount of L-carnitine was added into water at a final concentration range from about 100 mg to about 2000 mg per 16 fluid ounces (oz) of water.

cells (mitochondria) = conditions: cited from earlier work
adults = conditions: 1200 mg for a 60 kg person, 1993 GRAS expert committee; cited from earlier work
[2] = tested on: long chain fatty acid oxidation; conditions: oral supplementation, healthy subjects; cited from earlier work
[3] = tested on: long chain fatty acid oxidation; conditions: oral supplementation, slightly overweight adults; cited from earlier work

Compound	solubility in the water [1]	rate at which cells (mitochondria) burned fat (cells (mitochondria))	amount that can be safely ingested by adults (adults) [mg/kg/day]	long chain fatty acid oxidation as measured by 13CO2 exhalation [2]	long chain fatty acid oxidation [3]
C[N+](C)(C)C[C@H](O)CC(=O)[O-] [L-carnitine]	completely soluble	increased the rate	20	improved long chain fatty acid oxidation	
C[N+](C)(C)C[C@H](O)CC(=O)[O-].O=C(O)C(O)C(O)C(=O)O [L-Carnitine L-Tartrate]			20		increased long chain fatty acid oxidation
C[N+](C)(C)C[C@H](O)CC(=O)[O-].O=C([O-])CC(O)(CC(=O)[O-])C(=O)[O-].O=C([O-])CC(O)(CC(=O)[O-])C(=O)[O-].[Mg+2].[Mg+2].[Mg+2] [L-Carnitine Magnesium Citrate]			20		

— patent publication US20110027192A1, “SLIM-FIT FAT BURNING WATER” (priority 2008, published 2011)
